Laboratory results reported in patent US20080145440A1, “Microparticle preparation and medical composition” (priority 2006, published 2008).

Experiments:
[1] = tested on: Mouse-derived colon cancer (colon-26 adenocarcinoma) cells; test: In vivo experiment of anticancer treatment; set-up: species or system BALB/c male mouse; details: cancer-bearing mice
Procedure: As an experimental animal, a six-week-old BALB/c male mouse (weight 25 g, Shimizu Laboratory Supplies Co., Ltd.) was selected. […] In the experiment, the same agent treatment was performed as in the toxicity experiment. Specifically, the experiment was conducted in the following methods:
Weight changes and survival rate were observed from the day of the administration.

[2] = tested on: mouse-derived colon cancer cells (colon-26); test: In vitro cellular toxicity experiment (CCK-8); type: cell-based; details: colon-26, 10 μg/ml, forty eight hour treatment
Procedure: Using mouse-derived colon cancer cells (colon-26), a toxicity of the microparticle to cancer cells was experimented. Specifically, the experiment was conducted according to the following method:
The colon-26 cells were disseminated on a 96 well-plate at 1′104 concentration and cultured for twenty four hours. […] Cellular toxicity was examined by measuring absorbency under 450 nm with a CCK-8 kit (Dojindo, Kumamoto, Japan), the CCK-8 kit measuring formazan substitution of tetrazolium based on an intercellular enzyme.

In the case of `N.N.[Cl][Pt][Cl]` [free CDDP, cis-dichlorodiammineplatinum (II)], the “day of minimum weight after the administration” value ([1]; 20 mg/kg of CDDP intraperitoneal) is reported as “fifth day”, the “anticancer effect, concentration difference 5 mg/kg vs 10 mg/kg” value ([1]; intraperitoneal) is reported as “no significant difference in the anticancer effect” and the “start of death from cancer after the administration” value ([1]; intraperitoneal) is reported as “started to die of cancer after a fortieth day”. The cytostatic effect [2] was “approximately 50%”.
